Values of other authors, collected in PubChem BioAssay AID1259410 (Chemical Carcinogenesis Research Information System (CCRIS), 2018).

Test system: rodent tumor promotion studies, tumor incidence
Experiment: CCRIS tumor promotion studies

ClC1(Cl)C2(Cl)C3(Cl)C4(Cl)C(Cl)(Cl)C5(Cl)C3(Cl)C1(Cl)C5(Cl)C24Cl (stereo not given)
outcome (Carcinogen: 7,12-DIMETHYLBENZ[A]ANTHRACENE, 57-97-6, Doses [Carcinogen]: 200 NMOL IN 200 µL ACETONE ONCE, Doses [Promoter]: 0, 25, 50, 100, 200 NMOL IN 200 µL ACETONE 3/WK FOR 20 WK (STUDY DURATION: 20 WK), Doses [Promoter]: 0, 25, 50, 100, 200 NMOL IN 200 µL ACETONE 3/WK FOR 20 WK (STUDY DURATION: 20 WK), Route [Carcinogen]: DERMAL, Route [Promoter]: DERMAL, Species: MOUSE, Strain/Sex: CD-1/FEMALE): skin: tumor | outcome (Carcinogen: 7,12-DIMETHYLBENZ[A]ANTHRACENE, 57-97-6, Doses [Carcinogen]: 200 NMOL IN 200 µL ACETONE ONCE, Doses [Promoter]: 0, 25, 50, 100 NMOL IN 200 µL ACETONE 3/WK FOR 34 WK (STUDY DURATION: 34 WK), Doses [Promoter]: 0, 25, 50, 100 NMOL IN 200 µL ACETONE 3/WK FOR 34 WK (STUDY DURATION: 34 WK), Route [Carcinogen]: DERMAL, Route [Promoter]: DERMAL, Species: MOUSE, Strain/Sex: CD-1/FEMALE): skin: tumor | outcome (Carcinogen: 7,12-DIMETHYLBENZ[A]ANTHRACENE, 57-97-6, Doses [Carcinogen]: 200 NMOL IN 200 µL ACETONE ONCE, Doses [Promoter]: 0, 200 NMOL IN 200 µL ACETONE 2/WK FOR 20 WK BEGINNING 1 WK POST CARCINOGEN DOSE (STUDY DURATION: 21 WK), Route [Carcinogen]: DERMAL, Route [Promoter]: DERMAL, Species: MOUSE, Strain/Sex: CD-1/FEMALE): skin: tumors | outcome (Carcinogen: 7,12-DIMETHYLBENZ[A]ANTHRACENE, 57-97-6, Doses [Carcinogen]: 200 NMOL IN 200 µL ACETONE ONCE, Doses [Promoter]: 0, 200 NMOL IN 200 µL ACETONE 3/WK FOR 20 WK BEGINNING 1 WK POST CARCINOGEN DOSE (STUDY DURATION: 21 WK), Route [Carcinogen]: DERMAL, Route [Promoter]: DERMAL, Species: MOUSE, Strain/Sex: CD-1/FEMALE): skin: tumors | outcome (Carcinogen: 7,12-DIMETHYLBENZ[A]ANTHRACENE, 57-97-6, Doses [Carcinogen]: 200 NMOL IN 200 µL ACETONE ONCE, Doses [Promoter]: 0, 200 NMOL IN 200 µL ACETONE 3/WK FOR 20 WK BEGINNING 1 WK POST CARCINOGEN DOSE (STUDY DURATION: 21 WK), Route [Carcinogen]: DERMAL, Route [Promoter]: DERMAL, Species: MOUSE, Strain/Sex: CD-1/MALE): skin: tumors | outcome (Carcinogen: 7,12-DIMETHYLBENZ[A]ANTHRACENE, 57-97-6, Doses [Carcinogen]: 200 NMOL IN 200 µL ACETONE ONCE, Doses [Promoter]: 0, 200 NMOL IN 200 µL ACETONE 3/WK FOR 20 WK BEGINNING 4 WK POST CARCINOGEN DOSE ADMINISTERED TO OVARIECTOMIZED MICE (ST, Route [Carcinogen]: DERMAL, Route [Promoter]: DERMAL, Species: MOUSE, Strain/Sex: CD-1/FEMALE): skin: tumors

C=CCC1(CC=C)C(=O)NC(=O)NC1=O
outcome (Carcinogen: N-NITROSODIETHYLAMINE, 55-18-5, Doses [Carcinogen]: 75 MG/KG BW IN 0.85% SALINE ONCE, Doses [Promoter]: 0, 440 PPM IN DIET FOR DURATION OF STUDY BEGINNING 2 WK POST CARCINOGEN DOSE (STUDY DURATION: 78 WK), Route [Carcinogen]: INTRAPERITONEAL, Route [Promoter]: ORAL, Species: RAT, Strain/Sex: F344/MALE): liver: adenoma, carcinoma

C=CCC1(C(C)C)C(=O)NC(=O)NC1=O
outcome (Carcinogen: N-NITROSODIETHYLAMINE, 55-18-5, Doses [Carcinogen]: 75 MG/KG BW IN 0.85% SALINE ONCE, Doses [Promoter]: 0, 453 PPM IN DIET FOR DURATION OF STUDY BEGINNING 2 WK POST CARCINOGEN DOSE (STUDY DURATION: 78 WK), Route [Carcinogen]: INTRAPERITONEAL, Route [Promoter]: ORAL, Species: RAT, Strain/Sex: F344/MALE): liver: adenoma

C=C1/C(=C\C=C2/CCC[C@]3(C)[C@@H]([C@H](C)CCCC(C)(C)O)CC[C@@H]23)C[C@@H](O)C[C@@H]1O
outcome (Carcinogen: 7,12-DIMETHYLBENZ[A]ANTHRACENE, 57-97-6, Doses [Carcinogen]: 50 NMOL IN 200 µL ACETONE 2/WK FOR 16 WK, Doses [Promoter]: 0, 0.25, 0.5 NMOL IN 200 µL ACETONE APPLIED 1 HR PRIOR TO CARCINOGEN DOSES 2/WK FOR 16 WK (STUDY DURATION: 16 WK), Doses [Promoter]: 0, 0.25, 0.5 NMOL IN 200 µL ACETONE APPLIED 1 HR PRIOR TO CARCINOGEN DOSES 2/WK FOR 16 WK (STUDY DURATION: 16 WK), Route [Carcinogen]: DERMAL, Route [Promoter]: DERMAL, Species: MOUSE, Strain/Sex: CD-1/FEMALE): skin: tumors | outcome (Carcinogen: 7,12-DIMETHYLBENZ[A]ANTHRACENE, 57-97-6, Doses [Carcinogen]: 50 NMOL IN 200 µL ACETONE 2/WK FOR 16 WK, Doses [Promoter]: 0, 0.25 NMOL IN 200 µL ACETONE APPLIED 1 HR PRIOR TO AND 24 HR POST CARCINOGEN DOSES 2/WK FOR 16 WK (STUDY DURATION: 16, Route [Carcinogen]: DERMAL, Route [Promoter]: DERMAL, Species: MOUSE, Strain/Sex: CD-1/FEMALE): skin: tumors | outcome (Carcinogen: 7,12-DIMETHYLBENZ[A]ANTHRACENE, 57-97-6, Doses [Carcinogen]: 50 NMOL IN 200 µL ACETONE 2/WK FOR 16 WK, Doses [Promoter]: 0, 0.5 NMOL IN 200 µL ACETONE APPLIED 24 HR POST CARCINOGEN DOSES 2/WK FOR 16 WK (STUDY DURATION: 16 WK), Route [Carcinogen]: DERMAL, Route [Promoter]: DERMAL, Species: MOUSE, Strain/Sex: CD-1/FEMALE): skin: tumors | outcome (Carcinogen: N-METHYL-N'-NITRO-N-NITROSOGUANADINE, 70-25-7, Doses [Carcinogen]: 150 MG/L IN DRINKING WATER, Doses [Promoter]: 0, 2.5, 5 MG/KG IN DIET FOR DURATION OF STUDY BEGINNING 4 WK POST CARCINOGEN TREATMENT (STUDY DURATION: 32 WK), Doses [Promoter]: 0, 2.5, 5 MG/KG IN DIET FOR DURATION OF STUDY BEGINNING 4 WK POST CARCINOGEN TREATMENT (STUDY DURATION: 32 WK), Route [Carcinogen]: ORAL, Route [Promoter]: ORAL, Species: RAT, Strain/Sex: WISTAR/MALE): glandular stomach: adenocarcinoma

NC(Cc1c[nH]c2ccccc12)C(=O)O (stereo not given)
outcome (Carcinogen: 2-NAPHTHYLAMINE, Doses [Carcinogen]: DIET, Doses [Promoter]: IN DIET, Route [Carcinogen]: ORAL, Route [Promoter]: ORAL, Species: DOG, Strain/Sex: FEMALE): urinary bladder | outcome (Carcinogen: N-(4-(5-NITRO-2-FURYL)-2-THIAZOLYL)FORMAMIDE, Doses [Carcinogen]: DIET, Doses [Promoter]: IN DIET, Route [Carcinogen]: ORAL, Route [Promoter]: ORAL, Species: RAT, Strain/Sex: F344/MALE): urinary bladder: papilloma, carcinoma

CC1=C2C(=CO[C@H](C)[C@H]2C)C(=O)C(C(=O)O)=C1O
outcome (Carcinogen: OCHRATOXIN A, 303-47-9, Doses [Carcinogen]: 0.25 ML OF A 50 PPM SOLUTION 2/WK FOR 20 WK, Doses [Promoter]: 0, 0.25 ML OF 50 PPM SOLUTION 2/WK FOR 20 WK ADMINISTERED SIMULTANEOUSLY WITH CARCINOGEN TREATMENT (STUDY DURATION: 20 W, Route [Carcinogen]: GAVAGE, Route [Promoter]: GAVAGE, Species: MOUSE, Strain/Sex: ALBINO/MALE,FEMALE): kidney: tumor | outcome (Carcinogen: OCHRATOXIN A, 303-47-9, Doses [Carcinogen]: 0.25 ML OF A 50 PPM SOLUTION 2/WK FOR 20 WK, Doses [Promoter]: 0, 0.25 ML OF A 50 PPM SOLUTION ADMINISTERED SIMULTANEOUSLY WITH CARCINOGEN DOSE 2/WK FOR 20 WK (STUDY DURATION: 20 WK), Route [Carcinogen]: GAVAGE, Route [Promoter]: GAVAGE, Species: MOUSE, Strain/Sex: SWISS/MALE,FEMALE): kidney: tumor

Cc1c2ccccc2c(C)c2c1ccc1ccccc12
outcome (Carcinogen: Diethylstilbestrol, 56-53-1, Doses [Carcinogen]: 0, 0.1, 1, 10, 100 ug in 0.05 ml sesame oil once at birth, Doses [Carcinogen]: 0, 0.1, 1, 10, 100 ug in 0.05 ml sesame oil once at birth, Doses [Promoter]: 10 mg in 1 ml sesame oil once by gastric intubation at 50 days of age, study duration 175 or 300 days of age, Route [Carcinogen]: Subcutaneous, Route [Promoter]: Oral, Species: Rat, Strain/Sex: Sprague-Dawley/Female (22/control group; 15; 21; 13; 16/experimental group)): mammary carcinomas: 50, 54, 91, 39, 19% at 175 days and 77, 87, 100, 85, 75% at

Cc1ncc([N+](=O)[O-])n1CCO
outcome (Carcinogen: 1,2-DIMETHYLHYDRAZINE, 540-73-8, Doses [Carcinogen]: 40 MG/KG/WK FOR 20 WK, Doses [Promoter]: 0, 18 MG/KG/D FOR 20 WK (STUDY DURATION: 20 WK), Route [Carcinogen]: SUBCUTANEOUS, Route [Promoter]: GAVAGE, Species: RAT, Strain/Sex: WISTAR/MALE): colon: tumor | outcome (Carcinogen: UV IRRADIATION, Doses [Carcinogen]: 0.53 J/CM2 INCREASED BY 20% EVERY 2 WK TO 1.60 J/CM2 AND MAINTAINED AT 1.60 J/CM2 UNTIL DEATH, ADMINISTERED 5 D/WK FOR 1, Doses [Promoter]: 0, 15 UG/G BEGINNING 2 WK POST FIRST CARCINOGEN DOSE ADMINISTERED 2 HR PRIOR TO EACH CARCINOGEN DOSE (STUDY DURATION: 30, Route [Carcinogen]: DERMAL, Route [Promoter]: INTRAPERITONEAL, Species: MOUSE, Strain/Sex: SKH/HRL/FEMALE): skin: tumor

C[C@]12CCC(=O)C=C1CC[C@@H]1[C@@H]2CC[C@@]2(C)[C@H]1CC[C@]2(C)O
outcome (Carcinogen: N-BIS(2-HYDROXYPROPYL)NITROSAMINE, 53609-64-6, Doses [Carcinogen]: 210 MG/100 G BW 1/WK FOR 2 WK, Doses [Promoter]: 0, 300 PPM IN DIET OF CASTRATED RATS BEGINNING POST CARCINOGEN TREATMENT AND CONTINUING FOR 28 WK (STUDY DURATION: 30 WK, Route [Carcinogen]: INTRAPERITONEAL, Route [Promoter]: ORAL, Species: RAT, Strain/Sex: WISTAR/MALE): thyroid gland: adenoma or carcinoma
